Test results reported in US10968169B2, “Urea derivative” (Daiichi Sankyo Company, Limited, priority 2016, dated 2021).
Where two headings read alike, the source gives them in different places.

Experiments:
Bacteroides = assay: Indole production suppressing effect in viable bacteria; format: cell-based; settings: indole concentration in culture supernatant, read-out: Eroides Activity of Inhibiting Indole Production(IC50)
Protocol: The effect of a tryptophanase inhibitory compound to suppress indole production from a viable bacterium can be evaluated through the following operation. When E. coli (Escherichia Coli) is used as a strain known to produce indole, the strain is cultured in an LB medium at 37° C. for 12 to 18 hours under anaerobic conditions, and then, suspended in an assay medium (5 mM L-Tryptophan/PBS(+)/25 mM HEPES (pH8)) in such a manner as to obtain O.D. of about 0.3. When bacteroides is used, the strain is cultured in a modified GAM medium at 37° C. for 12 to 18 hours under anaerobic conditions, and then suspended in an assay medium (5 mM L-Tryptophan/PBS(+)/25 mM HEPES (pH8)) in such a manner as to obtain O.D. of about 1.1. The thus obtained viable bacterial suspension prepared to have a final concentration of a compound of 1 μM to 10 mM is dispensed at 200 μL per well into a 96-well plate and cultured at 37° C. for 2 to 4 hours under anaerobic conditions, and O.D., an ATP concentration (that can be quantitatively determined by using BacTiter-Glo (Promega Corporation)) and an indole concentration in the culture supernatant (that can be quantitatively determined by utilizing Ehrlich reaction) are measured. The effect of the tryptophanase inhibitory compound to suppress indole production from a viable bacterium can be evaluated depending on the degree of lowering of the indole concentration in the culture supernatant. It can be checked whether or not the effect is derived from a function other than tryptophanase inhibition, such as a bactericidal function or a bacterial growth inhibitory function, depending on lowering of the O.D. or reduction in the ATP concentration or by performing a generally practiced antibacterial activity test (a MIC (minimum growth inhibition concentration) test) using levofloxacin or the like as a positive control. The activities of inhibiting indole production of the compounds of the respective examples shown in Table 11 were measured by the above-described method using Bacteroides to evaluate the effect of inhibiting indole production.

[1] = biological target: tryptophanase of Bacteroides thetaiotamicron (Bacteroides thetaiotaomicron, UniProt Q8A7N2); assay: Tryptophanase enzyme inhibitory activity (LDH-coupled NADH loss); format: biochemical; settings: L-tryptophan 10 mM, 37° C., absorbance at 340 nm; read-out: Bacteroides Activity of Inhibiting Tryptophanase (IC50)
Protocol: Tryptophanase inhibitory activity was evaluated by a method using lactate dehydrogenase (LDH). The reaction time-dependent reduction in NADH conjugated with the enzymatic reaction, with LDH, of pyruvic acid produced through the enzymatic reaction of L-tryptophan as a substrate with tryptophanase, was measured with a spectrophotometer (Phillips-R S et al., Biochemistry, 23, 6228-6234 (1984)). Enzyme inhibitory activity obtained without adding a test compound (by adding DMSO alone) in the presence of tryptophanase was used as a control. As the enzyme, tryptophanase of Bacteroides thetaiotamicron (Genbank accession number: HC914434.1) was used. A test compound solution was prepared by dissolving each test compound in DMSO in an arbitrary concentration (from 30 mM to 30 nM at 10-fold common ratio). LDH, NADH and L-tryptophan were prepared, using distilled water, respectively to concentrations of 80 units/mL, 10 mM and […]. Bacteroides tryptophanase was prepared to 30 mg/mL. A potassium phosphate buffer was used as the buffer. [table] A reaction solution A was dispensed at 284.8 μL per well into a 96-well plate, and the test compound solution was added at 3.2 μL per well to obtain a final concentration of 1/100 (reaction solution B). The reaction solution B was incubated at 37° C. for 30 minutes, L-tryptophan was added thereto at 32 μL per well to obtain a final concentration of 10 mM (reaction solution C), and the enzyme reaction was performed at 37° C. over 30 minutes with absorbance at 340 nm measured for monitoring the NADH loss. Based on the NADH loss, the tryptophanase inhibitory activity of the compound was evaluated. Besides, the following compounds were similarly tested instead of the test compound.

[2] = system: indoxyl sulfate concentration in the plasma; assay: Effect of reducing indoxyl sulfate concentration in the plasma of mice; format: in vivo, male BALB/c mouse; settings: oral
Protocol: An effect of a tryptophanase inhibitory compound to reduce an indoxyl sulfate concentration in the plasma of a mouse can be evaluated through the following operation.
After fasting a male BALB/c mouse overnight, a tryptophanase compound dissolved or suspended at a concentration of 0.01 to 10 mg/mL in a 0.5% methylcellulose (MC) solution used as a solvent and a 0.5% MC solution are orally administered by gavage at a dose of 10 mL/kg respectively to a test compound group and to a solvent control group. When 30 minutes have elapsed after the administration of the test compound or the solvent, L-tryptophan, that is, a substrate of tryptophanase, is orally administered by gavage at a dose of 1 to 3 g/kg. The L-tryptophan is suspended in a 0.5% tragacanth solution. For 12 hours after the administration of the L-tryptophan, blood is collected over time from a tail vein by using a hematocrit tube. The thus obtained blood is centrifuged at 11,000 rpm for 5 minutes to collect plasma, and the indoxyl sulfate concentration in the plasma is measured singly by liquid chromatography (fluorescence detection) or its combination with a mass spectrometer used subsequently. The indoxyl sulfate concentration in the plasma of the test compound group against the indoxyl sulfate concentration in the plasma of the solvent control group is calculated as, for example, a ratio of the area under a curve of the indoxyl sulfate concentration, and thus, the efficacy of each compound in a living body can be compared.
The indoxyl sulfate concentrations in plasma obtained by using the compounds of the respective examples shown in Table 12 below were measured by the above-described method to evaluate the effect of reducing indoxyl sulfate concentration.

tryptophanase of Bacteroides thetaiotamicron, sequence (Q8A7N2 entry or part of it, change not shown): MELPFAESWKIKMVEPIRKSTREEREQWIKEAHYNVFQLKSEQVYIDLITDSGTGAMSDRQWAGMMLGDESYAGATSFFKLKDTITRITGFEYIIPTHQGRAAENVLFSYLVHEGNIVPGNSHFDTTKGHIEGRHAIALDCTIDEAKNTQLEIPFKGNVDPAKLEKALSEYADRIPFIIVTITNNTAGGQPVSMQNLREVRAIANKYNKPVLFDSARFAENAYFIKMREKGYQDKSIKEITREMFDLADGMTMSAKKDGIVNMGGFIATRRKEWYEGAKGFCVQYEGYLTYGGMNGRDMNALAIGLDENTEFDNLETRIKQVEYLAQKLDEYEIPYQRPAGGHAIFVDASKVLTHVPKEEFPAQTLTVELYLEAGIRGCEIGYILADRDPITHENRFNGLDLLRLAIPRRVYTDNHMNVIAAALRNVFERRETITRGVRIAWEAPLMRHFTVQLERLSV

Structure (SMILES)	IC50 (Bacteroides) [µM]	IC50 [1] [µM]	Indoxyl Sulfate Reduction Effect in Male BALB/c Mouse Plasma (Indoxyl sulfate reduction effect in plasma 6 hours after administering L-tryptophan: ED75−, mg/kg) [2] [mg/kg]	IC50 (Bacteroides; Bacteroides) [µM]
CCC(NC(=O)Nc1cccc(C#N)c1)(C(=O)O)C1CC1 (single isomer, unassigned) [(+) Isomer Compound of Example 33, (+)-2-{[(3-Cyanophenyl)carbamoyl]amino}-2-cyclopropylbutanoic acid]	< 3	0.6	1	
CC[C@@](NC(=O)Nc1cccc(C#N)c1)(C(=O)O)C1CC1 [(−) Isomer Compound of Example 33, (−)-2-{[(3-cyanophenyl)carbamoyl]amino}-2-cyclopropylbutanoic acid]	9	7.7	>1	
CCC(CC)(NC(=O)Nc1ccccc1)C(=O)O [Compound A, 2-ethyl-2-[(phenylcarbamoyl)amino]butanoic acid]		20	1	8
CCC(CC)(NC(=O)Nc1cccc(Cl)c1)C(=O)O [Compound B, 2-{[(3-chlorophenyl)carbamoyl]amino}-2-ethylbutanoic acid]		7.4	>1	< 3
CCC(CC)(NC(=O)Nc1ccc(Cl)cc1)C(=O)O [Compound C, 2-{[(4-chlorophenyl)carbamoyl]amino}-2-ethylbutanoic acid]		16	>1	6
CCC(CC)(NC(=O)Nc1ccc(F)cc1)C(=O)O [Compound D, 2-ethyl-2-{[(4-fluorophenyl)carbamoyl]amino}butanoic acid]		38.1	1	11
CCC(CC)(NC(=O)Nc1cccc(F)c1)C(=O)O [Compound E, 2-ethyl-2-{[(3-fluorophenyl)carbamoyl]amino}butanoic acid]		18.9	>1	7
CCC(CC)(NC(=O)Nc1cccc(C#N)c1)C(=O)O [Compound F, 2-{[(3-cyanophenyl)carbamoyl]amino}-2-ethylbutanoic acid]		16.5	1	12
CCC(CC)(NC(=O)Nc1ccc(CC#N)cc1)C(=O)O [Compound G, 2-({[4-(cyanomethyl)phenyl]carbamoyl}amino)-2-ethylbutanoic acid]		4.7	1	8
CCC(CC)(NC(=O)Nc1ccsc1)C(=O)O [Compound H, 2-ethyl-2-[(thiophen-3-ylcarbamoyl)amino]butanoic acid]		34.1	1	11
CC[C@@](C)(NC(=O)Nc1ccc(OC(F)F)cc1)C(=O)O [Example 8, (−)-N-{[4-(Difluoromethoxy)phenyl]carbamoyl}-D-isovaline]		12.8	1	7
CC[C@@](C)(NC(=O)Nc1ccc(OC(F)F)c(F)c1)C(=O)O [Example 15, (−)-N-{[4-(Difluoromethoxy)-3-fluorophenyl]carbamoyl}-D-isovaline]		13.5	1	14
CC[C@@](C)(NC(=O)Nc1ccc(Cl)cc1)C(=O)O [Example 25, (−)-N-[(4-Chlorophenyl)carbamoyl]-D-isovaline]		26.8	1	23
CCC(CC)(NC(=O)Nc1csc(Cl)c1)C(=O)O [Example 27, 2-{[(5-Chlorothiophen-3-yl)carbamoyl]amino}-2-ethylbutanoic acid]		6	1	5
CC[C@@](C)(NC(=O)Nc1ccc(Br)cc1)C(=O)O [Example 30, (−)-N-[(4-Bromophenyl)carbamoyl]-D-isovaline]		22.1	1	14
CC[C@@](C)(NC(=O)Nc1ccc(I)cc1)C(=O)O [Example 31, (−)-N-[(4-Iodophenyl)carbamoyl]-D-isovaline]		7.9	1	< 3
